pIC50: −log10 of the molar value. Positions of bridges follow the written chain, without caps; N, C: chain ends. Non-standard residues stand in square brackets, D forms with d. Residues, ends and D or L forms follow the SMILES beside them. *: point of attachment. Ala(indol-4-yl) = N[C@@H](Cc1cccc2[nH]ccc12)C(=O)O; Phe(4-COOH) = N[C@@H](Cc1ccc(C(=O)O)cc1)C(=O)O; Bip = N[C@@H](Cc1ccc(-c2ccccc2)cc1)C(=O)O; Phe(3-Me) = Cc1cccc(C[C@H](N)C(=O)O)c1; Val(3-OH) = CC(C)(O)[C@H](N)C(=O)O; NMeF = CN[C@@H](Cc1ccccc1)C(=O)O; 4Pal = N[C@@H](Cc1ccncc1)C(=O)O; Cha = N[C@@H](CC1CCCCC1)C(=O)O; Cit = NC(=O)NCCC[C@H](N)C(=O)O; Carboxymethyl = O=C(O)C*; NMeA = CN[C@@H](C)C(=O)O; Nle = CCCC[C@H](N)C(=O)O; Orn = NCCC[C@H](N)C(=O)O; Dab = NCC[C@H](N)C(=O)O; Dap = NC[C@H](N)C(=O)O; Sar = CNCC(=O)O
The molecules below were run against T1, human PD-1 (Jurkat-PD-1 cells) / PE-labeled human PD-L1-Ig (Homo sapiens, UniProt Q15116) (assay: Jurkat-PD-1 Cell Binding High-Content Screening Assay (CBA); Jurkat hPD1-PDL1 assay). Conditions: Jurkat HPD1-PDL1 IC50, Jurkat cell line over-expressing human PD-1; PE-labeled PD-L1-Ig 20 nM final; compound incubated 2 hours at 37° C.
T1 construct: expressed in transfected cells; host or cells: Jurkat cell line over-expressing human PD-1
T1 sequence (Q15116 25-288): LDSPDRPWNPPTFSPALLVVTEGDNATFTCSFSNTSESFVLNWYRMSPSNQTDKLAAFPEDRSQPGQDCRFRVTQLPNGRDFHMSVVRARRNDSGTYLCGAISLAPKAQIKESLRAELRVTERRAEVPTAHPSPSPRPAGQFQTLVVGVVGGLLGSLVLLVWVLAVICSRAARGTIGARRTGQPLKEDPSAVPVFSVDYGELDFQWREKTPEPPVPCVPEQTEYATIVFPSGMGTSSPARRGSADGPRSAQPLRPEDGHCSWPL
How it was run: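 Cell binding by imaging: Jurkat line stably over-expressing human PD-1, compound pre-exposure 2 h at 37° C, PE-conjugated PD-L1-Ig 20 nM final, medium DMEM containing 10% FCS.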

SMILES	pIC50
CC(C)C[C@@H]1NC(=O)[C@H](Cc2c[nH]c3ccccc23)NC(=O)[C@H](CC(=O)O)NC(=O)[C@H](Cc2ccc(O)cc2)NC(=O)[C@H](Cc2ccccc2)NC(=O)CSC[C@@H](C(=O)NCC(N)=O)NC(=O)[C@H](CO)NC(=O)[C@H](C(C)C)NC(=O)[C@H](CC(C)C)NC(=O)[C@H](CC(N)=O)NC(=O)[C@H]2CCCN2C(=O)[C@H](CN)NC(=O)[C@H](C(C)C)NC(=O)[C@H](Cc2ccc(-c3ccccc3)cc2)NC1=O [Example 1406] ({CH2CO}-FYDWL[Bip]V[Dap][dP]NLVSCG-NH2; thioether N-14)	6.46

Same assay, conditions: Jurkat cell line over-expressing human PD-1; PE-labeled PD-L1-Ig 20 nM final; compound incubated 2 hours at 37° C.; read-out: Jurkat HPD1-PDL1 IC50

SMILES	pIC50
Cc1cccc(C[C@@H]2NC(=O)[C@H](CC(=O)O)NC(=O)[C@H](Cc3ccc(OCC(=O)O)cc3)NC(=O)[C@H](Cc3ccncc3)NC(=O)CSC[C@@H](C(=O)N[C@@H](CCN)C(N)=O)NC(=O)[C@H](CO)NC(=O)[C@H](C(C)(C)O)NC(=O)[C@H](CC3CCCCC3)NC(=O)[C@H](CCN)NC(=O)[C@H]3CCCN3C(=O)[C@H](C)N(C)C(=O)[C@H](Cc3ccc(OCC(=O)O)cc3)NC(=O)[C@H](Cc3ccc(-c4ccccc4)cc3)NC(=O)[C@H](Cc3ccc(C(=O)O)cc3)NC2=O)c1 [Example 1178] ({CH2CO}-[4Pal]Y(Carboxymethyl)D[Phe(3-Me)][Phe(4-COOH)][Bip]Y(Carboxymethyl)[NMeA][dP][Dab][Cha][Val(3-OH)]SC[Dab]-NH2; thioether N-14)	7.15
CC(C)C[C@@H]1NC(=O)[C@H](Cc2c[nH]c3ccccc23)NC(=O)[C@H](CC(=O)O)NC(=O)[C@H](Cc2ccc(O)cc2)NC(=O)[C@H](Cc2ccccc2)NC(=O)CSC[C@@H](C(=O)N[C@@H](C)C(N)=O)NC(=O)[C@H](CO)NC(=O)[C@H](C(C)C)NC(=O)[C@H](CC(C)C)NC(=O)[C@H](CCCCN)NC(=O)[C@H]2CCCN2C(=O)[C@H](C)N(C)C(=O)[C@H](CCC(=O)O)NC(=O)[C@H](Cc2ccc(-c3ccccc3)cc2)NC1=O [Example 1036] ({CH2CO}-FYDWL[Bip]E[NMeA][dP]KLVSCA-NH2; thioether N-14)	7.22
CCCC[C@@H]1NC(=O)[C@H](CCCCN)NC(=O)[C@H](Cc2ccccc2)N(C)C(=O)[C@H](CC(=O)O)NC(=O)[C@H](CCCNC(=N)N)NC(=O)[C@H](Cc2ccc(-c3ccccc3)cc2)NC(=O)[C@H](C(C)C)NC(=O)[C@H](Cc2c[nH]c3ccccc23)NC(=O)[C@H](CC(=O)O)NC(=O)[C@H](Cc2ccc(O)cc2)NC(=O)[C@H](Cc2ccccc2)NC(=O)CSC[C@@H](C(=O)NCC(N)=O)NC(=O)[C@H](CCCNC(=N)N)NC(=O)[C@H](C(C)C)NC1=O [Example 1192] ({CH2CO}-FYDWV[Bip]RD[NMeF]K[Nle]VRCG-NH2; thioether N-14)	6.04
CC(C)C[C@@H]1NC(=O)[C@H](Cc2cccc3[nH]ccc23)NC(=O)[C@H](CC(=O)O)NC(=O)[C@H](Cc2ccc(O)cc2)NC(=O)[C@H](Cc2ccccc2)NC(=O)CSC[C@@H](C(=O)N[C@@H](C)C(N)=O)NC(=O)[C@H](CO)NC(=O)[C@H](C(C)C)NC(=O)[C@H](CC(C)C)NC(=O)[C@H](CC(N)=O)NC(=O)CN(C)C(=O)[C@H](C)N(C)C(=O)[C@H](C(C)C)NC(=O)[C@H](Cc2ccc(-c3ccccc3)cc2)NC1=O [Example 1124] ({CH2CO}-FYD[Ala(indol-4-yl)]L[Bip]V[NMeA][Sar]NLVSCA-NH2; thioether N-14)	6.35
CCCC[C@@H]1NC(=O)[C@H](CCCNC(=N)N)NC(=O)[C@H](Cc2ccccc2)N(C)C(=O)[C@H](C)N(C)C(=O)[C@H](CCCNC(=N)N)NC(=O)[C@H](Cc2ccc(-c3ccccc3)cc2)NC(=O)[C@H](C(C)C)NC(=O)[C@H](Cc2c[nH]c3ccccc23)NC(=O)[C@H](CC(=O)O)NC(=O)[C@H](Cc2ccc(O)cc2)NC(=O)[C@H](Cc2ccccc2)NC(=O)CSC[C@@H](C(=O)NCC(N)=O)NC(=O)[C@H](CO)NC(=O)[C@H](C(C)C)NC1=O [Example 1067] ({CH2CO}-FYDWV[Bip]R[NMeA][NMeF]R[Nle]VSCG-NH2; thioether N-14)	6.80
CC(C)C[C@@H]1NC(=O)[C@H](Cc2c[nH]c3ccccc23)NC(=O)[C@H](CC(=O)O)NC(=O)[C@H](Cc2ccc(O)cc2)NC(=O)[C@H](Cc2ccccc2)NC(=O)CSC[C@@H](C(=O)NCC(N)=O)NC(=O)[C@H](CO)NC(=O)[C@H](C(C)C)NC(=O)[C@H](CC(C)C)NC(=O)[C@H](CC(N)=O)NC(=O)[C@H](Cc2ccccc2)N(C)C(=O)[C@H](C)N(C)C(=O)[C@H](C(C)C)NC(=O)[C@H](Cc2ccc(-c3ccccc3)cc2)NC1=O [Example 1205] ({CH2CO}-FYDWL[Bip]V[NMeA][NMeF]NLVSCG-NH2; thioether N-14)	6.36
CC(C)C[C@@H]1NC(=O)[C@H](Cc2c[nH]c3ccccc23)NC(=O)[C@H](CC(=O)O)NC(=O)[C@H](Cc2ccc(O)cc2)NC(=O)[C@H](Cc2ccccc2)NC(=O)CSC[C@@H](C(=O)NCC(N)=O)NC(=O)[C@H](CO)NC(=O)[C@H](C(C)C)NC(=O)[C@H](CC(C)C)NC(=O)[C@H](C(C)C)NC(=O)CN(C)C(=O)[C@H](C)N(C)C(=O)[C@H](CCCNC(=N)N)NC(=O)[C@H](Cc2ccc(-c3ccccc3)cc2)NC1=O [Example 1232] ({CH2CO}-FYDWL[Bip]R[NMeA][Sar]VLVSCG-NH2; thioether N-14)	6.48

The remaining lines, values ahead:

pIC50	SMILES
6.57	CC(C)C[C@@H]1NC(=O)[C@H](CCCNC(=N)N)NC(=O)[C@H](Cc2ccccc2)N(C)C(=O)[C@H](C)N(C)C(=O)[C@H](CCCNC(=N)N)NC(=O)[C@H](Cc2ccc(-c3ccccc3)cc2)NC(=O)[C@H](C(C)C)NC(=O)[C@H](Cc2c[nH]c3ccccc23)NC(=O)[C@H](CC(=O)O)NC(=O)[C@H](Cc2cnc[nH]2)NC(=O)[C@H](Cc2ccccc2)NC(=O)CSC[C@@H](C(=O)NCC(N)=O)NC(=O)[C@H](CO)NC(=O)[C@H](C(C)C)NC1=O [Example 1249] ({CH2CO}-FHDWV[Bip]R[NMeA][NMeF]RLVSCG-NH2; thioether N-14)
7.22	CC(C)C[C@@H]1NC(=O)CSC[C@@H](C(=O)N[C@@H](C)C(N)=O)NC(=O)[C@H](CO)NC(=O)[C@H](C(C)C)NC(=O)[C@H](CC(C)C)NC(=O)[C@H](CCN)NC(=O)[C@H](Cc2ccccc2)N(C)C(=O)[C@H](C)N(C)C(=O)[C@H](CCCNC(=N)N)NC(=O)[C@H](Cc2ccc(-c3ccccc3)cc2)NC(=O)[C@H](C(C)C)NC(=O)[C@H](Cc2c[nH]c3ccccc23)NC(=O)[C@H](CC(=O)O)NC(=O)[C@H](Cc2ccc(O)cc2)NC1=O [Example 1305] ({CH2CO}-LYDWV[Bip]R[NMeA][NMeF][Dab]LVSCA-NH2; thioether N-14)
6.18	CC(C)C[C@@H]1NC(=O)[C@H](Cc2c[nH]c3ccccc23)NC(=O)[C@H](CC(=O)O)NC(=O)[C@H](Cc2ccc(O)cc2)NC(=O)[C@H](Cc2ccccc2)NC(=O)CSC[C@@H](C(=O)N[C@@H](C)C(N)=O)NC(=O)[C@H]([C@@H](C)O)NC(=O)[C@H](C(C)C)NC(=O)[C@H](CC(C)C)NC(=O)[C@H](CC(N)=O)NC(=O)[C@H]2CCCN2C(=O)[C@H](CN)NC(=O)[C@H](C(C)C)NC(=O)[C@H](Cc2ccc(-c3ccccc3)cc2)NC1=O [Example 1405] ({CH2CO}-FYDWL[Bip]V[Dap][dP]NLVTCA-NH2; thioether N-14)
6.39	CC(C)C[C@@H]1NC(=O)[C@H](CCCNC(=N)N)NC(=O)[C@H](Cc2ccccc2)N(C)C(=O)[C@H](C)N(C)C(=O)[C@H](CCCNC(=N)N)NC(=O)[C@H](Cc2ccc(-c3ccccc3)cc2)NC(=O)[C@H](C(C)C)NC(=O)[C@H](Cc2c[nH]c3ccccc23)NC(=O)[C@H](CC(=O)O)NC(=O)[C@H](Cc2ccc(O)cc2)NC(=O)[C@H](CC(N)=O)NC(=O)CSC[C@@H](C(=O)N[C@@H](C)C(N)=O)NC(=O)[C@H]([C@@H](C)O)NC(=O)[C@H](C(C)C)NC1=O [Example 1355] ({CH2CO}-NYDWV[Bip]R[NMeA][NMeF]RLVTCA-NH2; thioether N-14)
6.20	CC(C)C[C@@H]1NC(=O)[C@H](CCCNC(=N)N)NC(=O)[C@H](Cc2ccccc2)N(C)C(=O)[C@H](CCCN)NC(=O)[C@H](CCCNC(=N)N)NC(=O)[C@H](Cc2ccc(-c3ccccc3)cc2)NC(=O)[C@H](C(C)C)NC(=O)[C@H](Cc2c[nH]c3ccccc23)NC(=O)[C@H](CC(=O)O)NC(=O)[C@H](Cc2ccc(O)cc2)NC(=O)[C@H](CC(N)=O)NC(=O)CSC[C@@H](C(=O)N[C@@H](C)C(N)=O)NC(=O)[C@H]([C@@H](C)O)NC(=O)[C@H](C(C)C)NC1=O [Example 1383] ({CH2CO}-NYDWV[Bip]R[Orn][NMeF]RLVTCA-NH2; thioether N-14)
6.85	CC(C)C[C@@H]1NC(=O)[C@H](Cc2c[nH]c3ccccc23)NC(=O)[C@H](CC(=O)O)NC(=O)[C@H](Cc2ccc(O)cc2)NC(=O)[C@H](Cc2ccccc2)NC(=O)CSC[C@@H](C(=O)NCC(N)=O)NC(=O)[C@H](CO)NC(=O)[C@H](C(C)C)NC(=O)[C@H](CC(C)C)NC(=O)[C@H](CCN)NC(=O)[C@H]2CCCN2C(=O)[C@H](CN)NC(=O)[C@H](C(C)C)NC(=O)[C@H](Cc2ccc(-c3ccccc3)cc2)NC1=O [Example 1410] ({CH2CO}-FYDWL[Bip]V[Dap][dP][Dab]LVSCG-NH2; thioether N-14)
8.00	Cc1cccc(C[C@@H]2NC(=O)[C@H](CC(=O)O)NC(=O)[C@H](Cc3ccc(O)cc3)NC(=O)[C@H](CC(N)=O)NC(=O)CSC[C@@H](C(=O)N[C@@H](C)C(N)=O)NC(=O)[C@H]([C@@H](C)O)NC(=O)[C@H](C(C)C)NC(=O)[C@H](CC(C)C)NC(=O)[C@H](CCN)NC(=O)[C@H](Cc3ccccc3)N(C)C(=O)[C@H](C)N(C)C(=O)[C@H](CCCNC(N)=O)NC(=O)[C@H](Cc3ccc(-c4ccccc4)cc3)NC(=O)[C@H](C(C)C)NC2=O)c1 [Example 1374] ({CH2CO}-NYD[Phe(3-Me)]V[Bip][Cit][NMeA][NMeF][Dab]LVTCA-NH2; thioether N-14)
